Experimental data from patent publication US8143255B2, “Heteroalkyl linked pyrimidine derivatives” (S*BIO Pte Ltd., priority 2005, dated 2012).

What was measured:
FLT3 = target: T1, FLT3 (Homo sapiens, UniProt P36888); assay: In vitro kinase activity assay (PKLight), FLT3; format: biochemical; conditions: recombinant FLT3, poly(Glu,Tyr) substrate, 4 μM ATP
T1 construct: purchased Invitrogen PV3182
T1 sequence (P36888 27-993): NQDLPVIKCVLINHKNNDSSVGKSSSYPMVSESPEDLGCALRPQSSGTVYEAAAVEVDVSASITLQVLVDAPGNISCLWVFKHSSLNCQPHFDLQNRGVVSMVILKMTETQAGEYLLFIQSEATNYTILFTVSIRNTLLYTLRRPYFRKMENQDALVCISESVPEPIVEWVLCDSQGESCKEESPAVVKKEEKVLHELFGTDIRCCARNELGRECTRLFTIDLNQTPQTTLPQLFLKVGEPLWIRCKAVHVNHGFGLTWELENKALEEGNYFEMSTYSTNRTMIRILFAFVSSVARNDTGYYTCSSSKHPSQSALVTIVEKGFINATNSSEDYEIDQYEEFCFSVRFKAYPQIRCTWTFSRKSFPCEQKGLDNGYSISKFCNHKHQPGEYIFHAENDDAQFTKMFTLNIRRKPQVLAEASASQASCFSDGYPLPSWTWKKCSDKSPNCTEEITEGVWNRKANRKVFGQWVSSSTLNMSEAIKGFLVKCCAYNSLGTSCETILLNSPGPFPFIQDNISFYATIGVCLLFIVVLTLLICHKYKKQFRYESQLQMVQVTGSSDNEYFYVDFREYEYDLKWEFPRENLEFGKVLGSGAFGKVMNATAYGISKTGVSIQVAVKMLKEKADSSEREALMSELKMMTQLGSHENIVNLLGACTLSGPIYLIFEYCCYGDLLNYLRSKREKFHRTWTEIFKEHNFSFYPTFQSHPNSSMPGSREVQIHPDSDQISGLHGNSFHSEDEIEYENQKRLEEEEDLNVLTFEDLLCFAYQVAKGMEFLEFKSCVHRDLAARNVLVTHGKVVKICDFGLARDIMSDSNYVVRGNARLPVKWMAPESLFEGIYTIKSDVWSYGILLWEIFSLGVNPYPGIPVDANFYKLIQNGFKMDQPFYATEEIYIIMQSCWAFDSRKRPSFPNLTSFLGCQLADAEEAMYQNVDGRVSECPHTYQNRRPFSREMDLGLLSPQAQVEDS
Procedure: The recombinant enzymes (CDK2/CyclinA, FLT3, JAK2 and JAK2 V617F) were purchased from Invitrogen (Cat # PV3267, 3182, 4210 and 4347 respectively). All assays were carried out in 384-well white microtiter plates using the PKLight assay system from Cambrex (East rutherford, N.J.). This assay platform is essentially a luminometdc assay for the detection of ATP in the reaction using a luciferase-coupled reaction. For CDK2/Cyclin A assay, the reaction mixture consisted of the following components in 25 μL assay buffer (50 mM Hepes pH 7.5, 10 mM MgCl2, 5 mM MnCl2, 5 mM BGP, 1 mM DTT, 0.1 mM sodium orthovanadate), 1.4 μg/mL of CDK2/Cyclin A complex, 0.5 μM of RbING substrate (Invitrogen, Cat # PV2939) and 0.5 μM of ATP. The compounds were tested at 8 concentrations prepared from 4-fold serial dilution starting at 10 μM. The reaction was incubated at room temperature for 2 hr. 13 μL of PKLight ATP detection reagent was added and the reaction was incubated for 10 min. Luminescence signals were detected on a multi-label plate reader (Victor^2 V 1420, Perkin-Elmer). The other kinase assays were identical except for the following differences in reagents. For FLT3 assays, the reaction contained 2.0 μg/mL FLT3 enzyme, 5 μM of poly(Glu,Tyr) substrate (Sigma, Cat # P0275) and 4 μM of ATP. For JAK2 assays, the reaction contained 0.6 μg/mL of JAK2 enzyme, 2 μM of poly(Glu,Ala,Tyr) substrate (Sigma, Cat # P3899) and 0.2 μM of ATP. For JAK2 V617F mutant assays, the reaction contained 8.0 μg/mL of JAK2 mutant enzyme, 2 μM of poly(Glu,Ala,Tyr) substrate (Sigma, Cat # P3899) and 0.2 μM of ATP. The analytical software, Prism 4.0 (GraphPad Software Pte Ltd) was used to generate IC50 values from the data. […] IC50 values are shown below in Table 3.

[1] = system: Colo205 (colon adenocarcinoma cell line); assay: Cell-based proliferation assay, Colo205; conditions: Homo sapiens, COLO 205; Colo205 cells, 96 h treatment
Procedure: (§1) Human cancer cell lines HL60 (acute myeloid leukemia cell line), Colo205 (colon adenocarcinoma cell line), HEL92.1.7 (erythroleukemia cell line), MV4-11 (acute myeloid leukemia cell line) and DU145 (metastatic prostate cancer cell line) were obtained from ATCC. They were cultivated in the media according to the ATCC work instructions. Colo205 and DU145 cells were seeded in 96-wells plate 5000 cells per cell and 1000 cells per well respectively. HEL92.1.7 and MV4-11 cells were seeded at 6000 cells per well while HL60 cells were seeded at 8000 cells per well in 96 well plate. The plates were incubated at 37° C., 5% CO2, for 24 h. Cells were treated with compounds at various concentrations for 96 h. Cell growth was then monitored using Celltiter96 Aqueous One Solution Cell Proliferation Assay from Promega (Madison Wis.). Dose response curves were plotted to determine GI50 values for the compounds using XL-fit (ID Business Solution, Emeryville, Calif.).

JAK2 = target: T2, JAK2 (Homo sapiens, UniProt O60674); assay: In vitro kinase activity assay (PKLight), JAK2; format: biochemical; conditions: recombinant JAK2, poly(Glu,Ala,Tyr) substrate, 0.2 μM ATP
T2 construct: purchased Invitrogen PV4210
Procedure: (§2) All assays were carried out in 384-well white microtiter plates using the PKLight assay system from Cambrex (East rutherford, N.J.). This assay platform is essentially a luminometdc assay for the detection of ATP in the reaction using a luciferase-coupled reaction. For CDK2/Cyclin A assay, the reaction mixture consisted of the following components in 25 μL assay buffer (50 mM Hepes pH 7.5, 10 mM MgCl2, 5 mM MnCl2, 5 mM BGP, 1 mM DTT, 0.1 mM sodium orthovanadate), 1.4 μg/mL of CDK2/Cyclin A complex, 0.5 μM of RbING substrate (Invitrogen, Cat # PV2939) and 0.5 μM of ATP. The compounds were tested at 8 concentrations prepared from 4-fold serial dilution starting at 10 μM. The reaction was incubated at room temperature for 2 hr. 13 μL of PKLight ATP detection reagent was added and the reaction was incubated for 10 min. Luminescence signals were detected on a multi-label plate reader (Victor^2 V 1420, Perkin-Elmer). The other kinase assays were identical except for the following differences in reagents. For FLT3 assays, the reaction contained 2.0 μg/mL FLT3 enzyme, 5 μM of poly(Glu,Tyr) substrate (Sigma, Cat # P0275) and 4 μM of ATP. For JAK2 assays, the reaction contained 0.6 μg/mL of JAK2 enzyme, 2 μM of poly(Glu,Ala,Tyr) substrate (Sigma, Cat # P3899) and 0.2 μM of ATP. […] The analytical software, Prism 4.0 (GraphPad Software Pte Ltd) was used to generate IC50 values from the data.

[2] = system: MV4-11 (acute myeloid leukemia cell line); assay: Cell-based proliferation assay, MV4-11; conditions: Homo sapiens; MV4-11 cells, 96 h treatment
Procedure: as §1

[3] = system: HEL92.1.7 (erythroleukemia cell line); assay: Cell-based proliferation assay, HEL92.1.7; conditions: Homo sapiens, HEL 92.1.7; HEL92.1.7 cells, 96 h treatment
Procedure: as §1

[4] = system: HL60 (acute myeloid leukemia cell line); assay: Cell-based proliferation assay, HL60; conditions: Homo sapiens, HL-60; HL60 cells, 96 h treatment
Procedure: as §1

CDK2/CyclinA = target: T3, CDK2/CyclinA (Homo sapiens, UniProt P24941); assay: In vitro kinase activity assay (PKLight), CDK2/Cyclin A; format: biochemical; conditions: recombinant CDK2/Cyclin A, RbING substrate, 0.5 μM ATP, 2 hr
T3 construct: purchased Invitrogen PV3267
Procedure: as §2

[5] = system: DU145 (metastatic prostate cancer cell line); assay: Cell-based proliferation assay, DU145; conditions: Homo sapiens, DU-145; DU145 cells, 96 h treatment
Procedure: as §1

JAK2 V617F = target: T4, JAK2 V617F (Homo sapiens, UniProt O60674, V617F); assay: In vitro kinase activity assay (PKLight), JAK2 V617F mutant; format: biochemical; conditions: recombinant JAK2 V617F mutant, poly(Glu,Ala,Tyr) substrate, 0.2 μM ATP
T4 construct: purchased Invitrogen PV4347
Procedure: as §2

T2 sequence (O60674 whole entry): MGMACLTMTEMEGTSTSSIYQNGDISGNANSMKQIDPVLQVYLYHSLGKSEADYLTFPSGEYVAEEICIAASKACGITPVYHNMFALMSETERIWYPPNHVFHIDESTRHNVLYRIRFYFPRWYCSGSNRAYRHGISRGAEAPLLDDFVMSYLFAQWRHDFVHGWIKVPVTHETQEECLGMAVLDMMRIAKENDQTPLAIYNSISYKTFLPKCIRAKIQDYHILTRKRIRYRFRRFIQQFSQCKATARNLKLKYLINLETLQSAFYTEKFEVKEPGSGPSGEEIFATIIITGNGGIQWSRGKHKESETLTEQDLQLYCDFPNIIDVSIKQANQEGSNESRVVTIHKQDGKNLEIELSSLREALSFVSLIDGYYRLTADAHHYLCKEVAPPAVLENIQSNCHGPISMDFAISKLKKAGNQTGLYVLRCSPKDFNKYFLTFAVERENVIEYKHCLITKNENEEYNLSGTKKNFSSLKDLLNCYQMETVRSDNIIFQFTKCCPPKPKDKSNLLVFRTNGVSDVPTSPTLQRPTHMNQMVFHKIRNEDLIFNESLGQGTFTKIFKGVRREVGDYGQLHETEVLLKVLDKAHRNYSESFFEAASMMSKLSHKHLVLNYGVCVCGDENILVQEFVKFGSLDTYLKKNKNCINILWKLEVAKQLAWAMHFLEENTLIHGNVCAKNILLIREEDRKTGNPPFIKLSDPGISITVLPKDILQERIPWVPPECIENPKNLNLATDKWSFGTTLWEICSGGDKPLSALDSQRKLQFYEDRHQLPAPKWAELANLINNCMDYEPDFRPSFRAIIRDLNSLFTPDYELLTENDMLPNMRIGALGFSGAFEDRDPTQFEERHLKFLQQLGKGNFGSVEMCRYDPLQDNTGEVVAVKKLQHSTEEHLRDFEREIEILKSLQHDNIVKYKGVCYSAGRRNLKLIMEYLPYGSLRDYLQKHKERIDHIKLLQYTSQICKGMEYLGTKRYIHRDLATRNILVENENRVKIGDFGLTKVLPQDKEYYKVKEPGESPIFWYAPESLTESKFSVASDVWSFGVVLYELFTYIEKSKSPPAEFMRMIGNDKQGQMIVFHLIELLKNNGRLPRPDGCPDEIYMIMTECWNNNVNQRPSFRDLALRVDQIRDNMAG
T4 sequence (O60674 whole entry V617F): as the sequence (O60674 whole entry) above, with V617F counted along it

IC50 (FLT3) | GI50 [1] | IC50 (JAK2) | GI50 [2] | GI50 [3] | GI50 [4] | IC50 (CDK2/CyclinA) | GI50 [5] | IC50 (JAK2 V617F) | Compound
> 5 µM | > 5 µM | > 5 µM | 1 to 5 µM | > 5 µM | > 5 µM | 1 to 5 µM | > 5 µM | – | O=C1CC/C=C/COCc2cccc(c2)Nc2nccc(n2)-c2cccc(c2)N1 [Compound 4]
≤ 1 µM | ≤ 1 µM | ≤ 1 µM | > 5 µM | – | ≤ 1 µM | ≤ 1 µM | – | – | CN1C/C=C/CCOc2cccc(c2)-c2ccnc(n2)Nc2ccc(OCCN3CCOCC3)c(c2)C1 [Compound 13]
1 to 5 µM | > 5 µM | > 5 µM | 1 to 5 µM | > 5 µM | > 5 µM | 1 to 5 µM | – | – | CN1C/C=C/CC(=O)Nc2cccc(c2)-c2ccnc(n2)Nc2cccc(c2)C1 [Compound 14]
≤ 1 µM | ≤ 1 µM | ≤ 1 µM | – | – | ≤ 1 µM | ≤ 1 µM | – | ≤ 1 µM | CN1Cc2cccc(c2)Nc2nccc(n2)-c2cccc(c2)OCCC2CC2C1 (stereo not shown) [Compound 20]
≤ 1 µM | – | – | – | – | – | ≤ 1 µM | – | – | C1=C/CNCc2cccc(c2)Nc2nccc(n2)-c2cccc(c2)OCC/1 [Compound 22]
≤ 1 µM | – | ≤ 1 µM | – | – | – | ≤ 1 µM | – | – | C1=C/CN(C2CC2)Cc2cccc(c2)Nc2nccc(n2)-c2cccc(c2)OCC/1 [Compound 25]
≤ 1 µM | 1 to 5 µM | ≤ 1 µM | ≤ 1 µM | ≤ 1 µM | ≤ 1 µM | ≤ 1 µM | 1 to 5 µM | – | Cc1cnc2nc1-c1cccc(c1)OCC/C=C/CN(C)Cc1cccc(c1)N2 [Compound 27]
≤ 1 µM | – | – | – | – | – | ≤ 1 µM | – | – | C1=C\CNCc2cccc(c2)Nc2nccc(n2)-c2cccc(c2)OCC/1 [Compound 29]
≤ 1 µM | ≤ 1 µM | ≤ 1 µM | ≤ 1 µM | ≤ 1 µM | ≤ 1 µM | ≤ 1 µM | ≤ 1 µM | – | CN1C/C=C/CCOc2cc(F)cc(c2)-c2ccnc(n2)Nc2cccc(c2)C1 [Compound 35]
≤ 1 µM | 1 to 5 µM | ≤ 1 µM | – | – | ≤ 1 µM | ≤ 1 µM | – | – | CN1C/C=C/CCOc2cc(ccc2N)-c2ccnc(n2)Nc2cccc(c2)C1 [Compound 38]
≤ 1 µM | – | ≤ 1 µM | ≤ 1 µM | ≤ 1 µM | ≤ 1 µM | ≤ 1 µM | – | ≤ 1 µM | CN1C/C=C/CCOc2cccc(c2)-c2ccnc(n2)Nc2ccc(N3CCOCC3)c(c2)C1 [Compound 39]
> 5 µM | – | > 5 µM | 1 to 5 µM | 1 to 5 µM | 1 to 5 µM | 1 to 5 µM | – | – | CN1C/C=C/CCOc2cccc(c2)-c2ccnc(n2)Nc2cc(ccn2)C1 [Compound 44]
≤ 1 µM | – | ≤ 1 µM | ≤ 1 µM | ≤ 1 µM | ≤ 1 µM | ≤ 1 µM | – | – | CN1C/C=C/CCOc2cccc(c2)-c2ccnc(n2)Nc2ccc(OCCN3CCCCC3)c(c2)C1 [Compound 46]
≤ 1 µM | – | ≤ 1 µM | ≤ 1 µM | ≤ 1 µM | ≤ 1 µM | ≤ 1 µM | – | – | CN1C/C=C/CCOc2cccc(c2)-c2ccnc(n2)Nc2ccc(OCCn3cncn3)c(c2)C1 [Compound 61]
≤ 1 µM | 1 to 5 µM | ≤ 1 µM | ≤ 1 µM | 1 to 5 µM | ≤ 1 µM | ≤ 1 µM | – | – | CN1C/C=C/COCC2=CC=C(O2)c2ccnc(n2)Nc2cccc(c2)C1 [Compound 62]
≤ 1 µM | ≤ 1 µM | ≤ 1 µM | ≤ 1 µM | ≤ 1 µM | ≤ 1 µM | ≤ 1 µM | – | – | CCS(=O)(=O)CCOc1ccc2cc1CN(C)C/C=C/CCOc1cccc(c1)-c1ccnc(n1)N2 [Compound 70]
≤ 1 µM | – | ≤ 1 µM | ≤ 1 µM | ≤ 1 µM | ≤ 1 µM | ≤ 1 µM | – | – | CN1C/C=C/COCC2=CC=C(S2)c2ccnc(n2)Nc2ccc(OCCN3CCCC3)c(c2)C1 [Compound 74]
≤ 1 µM | – | ≤ 1 µM | ≤ 1 µM | ≤ 1 µM | ≤ 1 µM | ≤ 1 µM | – | – | CN1C/C=C/CCOc2cccc(c2)-c2ccnc(n2)Nc2cc(N)cc(c2)C1 [Compound 81]
